Patent publication US5843941A, “Ras farnesyl transferase inhibitors” (Genentech, Inc., priority 1994, dated 1998)

How the values were obtained:
[1] = tested on: farnesylated proteins F1, F2 and F3 in Met18b-2 cells; assay: Inhibition of intracellular farnesylation in intact Met18b-2 cells, Triton-soluble proteins F1, F2, F3; type: cell-based, Chinese hamster
From the text: (§1) To study farnesylation in intact cells we used Met18b-2 cells, a line of Chinese hamster ovary (CHO) cells that takes up [3H]mevalonate efficiently (see Faust, J., and Krieger, M. J. Biol. Chem. 262, 1966 (1987)) owing to the production of a mevalonate transport protein (see Kim, C. M., Goldstein, J. L., Brown, M. S. J. Biol. Chem. 267, 23113 (1992)). The [3H]mevalonate is converted by the cells into [3H]farnesyl pyrophosphate and [3H]geranylgeranyl pyrophosphate, which are then attached to proteins (Kim, C. M., Goldstein, J. L., Brown, M. S. J. Biol. Chem. 267, 23113 (1992)). In the assay, stock cultures of Met18b-2 cells were seeded at a density of 3-105 cells per 60 mm dish in 3 ml of medium A (Dulbecco's modified Eagle medium/Ham's F12 medium (1:1, v/v) containing 100 U/ml penicillin and 100 μg/ml streptomycin) supplemented with 5% (v/v) fetal calf serum (FCS). On day 3, each monolayer was refed with 1 ml medium A supplemented with 1% FCS (dialyzed against 0.15 M NaCl). At this point the cells were treated with 100 μM compactin (see Brown, M. S., Faust, J. R., Goldstein, J. L., Kaneko, I., and Endo, A. J. Biol. Chem. 253, 1121 (1978)) which blocks the synthesis of unlabeled mevalonate within the cells. Each compound was dissolved at 25 mM in DMSO/10 mM DTT immediately before use and 10 μl of this solution added directly. After 2 hr incubation at 37° C., each monolayer received 100 μCi [3H]mevalonate (60 Ci/mmol, American Radiolabeled Chemicals, Inc.) added in 100 μl of the medium A, and the incubation continued for 4 hr. The cells were harvested by rinsing three times with 3 ml of 50 mM Tris-HCl/0.15 M NaCl (pH 7.5). 300 μl of lysis buffer (0.5X Dulbecco's phosphate-buffered saline containing 1% Triton X-100, 5 μg/ml leupeptin, 5 μg/ml pepstatin, 0.5 mM phenylmethylsulfonyl fluoride, and 0.05 U/ml aprotinin) was added to each monolayer. After incubation on ice for 5 mon, the lysates were centrifuged 30 sec in a microfuge at 12,000 g. The resulting supernatant was tranferred to a new tube, and each pellet was resuspended in 60 μl of lysis buffer. Protein concentrations were determined using the BCA protein assay reagent (Pierce) according to the manufacturer's instructions. Detergent-soluble (supernatant) and -insoluble (pellet) samples were mixed with 2X SDS sample buffer (see Laemmli, U. K. Nature 227, 680 (1970)) and heated at 95° C. for 5 min before electrophoresis. Each lane contained 90 μg protein, and was run on a 12.5% SDS-polyacrylamide gel. The gel was dried, treated with ENTENSIFY (NEN-DuPont), and exposed to Kodak XOMAT-AR film for 9 h at -80° C. to allow visualization of all prenylated proteins. Migration of [14C]methylated molecular weight standards (Amersham) were used as markers.
The results of this assay are shown in FIG. 3, using a final concentration of 250 μM for each inhibitor. […] As shown in the figure, none of the control peptides or control benzodiazepine-peptideomimetics altered the prenylation of proteins in intact cells.
Using the same cells and procedures followed above for Example 125, we measured the dose dependence upon the inhibition of farnesylation in intact cells. […] Compound 37B inhibited the famesylation of F1-3 detectably at 10 μM, and almost completely at 25 μM.
In this manner, it is possible to obtain data regarding the comparative potency of these inhibitors upon the level of intracellular farnesylation. We have chosen to report the EC90% values for these inhibitors as the concentration required for a reduction in the Triton- soluble labelling (denoted F-1, F-2, and F-3) to 90% of control cells (untreated).

[2] = tested on: low molecular weight GTP binding proteins (SMG) in Met18b-2 cells; assay: [3H]mevalonate labeling of low molecular weight GTP binding proteins (SMG) in Met18b-2 cells; type: cell-based, Chinese hamster
From the text: as §1, with “The resulting supernatant was tranferred to a new tube, and each pellet was resuspended in 60 μl of lysis buffer.” left out, “Detergent-soluble (supernatant) and -insoluble (pellet) samples were mixed with 2X SDS sample buffer (see Laemmli, U. K. Nature 227, 680 (1970)) and heated at 95° C. for 5 min before electrophoresis. Each lane contained 90 μg protein, and was run on a 12.5% SDS-polyacrylamide gel. The gel was dried, treated with ENTENSIFY (NEN-DuPont), and exposed to Kodak XOMAT-AR film for 9 h at -80° C. to allow visualization of all prenylated proteins. Migration of [14C]methylated molecular weight standards (Amersham) were used as markers.” left out

CAAX farnesyltransferase = CAAX farnesyltransferase (Rattus norvegicus, UniProt Q02293+Q04631); assay: In vitro inhibition of CAAX farnesyltransferase; type: biochemical; parameters: purified to homogeneity from rat brain homogenates; from tissue; host or cells: rat brain; alternatively recombinant enzyme from a baculovirus expression system; conditions: FIG. 1A
CAAX farnesyltransferase, sequence (Q02293 whole entry, one chain of several): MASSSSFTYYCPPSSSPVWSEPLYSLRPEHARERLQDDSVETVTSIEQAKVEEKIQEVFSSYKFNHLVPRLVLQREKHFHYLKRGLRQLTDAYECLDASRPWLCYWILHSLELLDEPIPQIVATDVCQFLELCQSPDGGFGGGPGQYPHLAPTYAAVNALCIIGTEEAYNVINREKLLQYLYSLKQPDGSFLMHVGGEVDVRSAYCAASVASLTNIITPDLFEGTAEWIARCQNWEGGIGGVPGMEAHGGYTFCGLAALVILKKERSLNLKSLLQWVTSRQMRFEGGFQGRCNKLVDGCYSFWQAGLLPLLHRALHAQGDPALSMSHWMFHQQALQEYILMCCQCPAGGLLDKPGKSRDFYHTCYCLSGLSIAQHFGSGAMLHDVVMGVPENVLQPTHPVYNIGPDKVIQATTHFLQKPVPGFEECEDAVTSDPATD
In short: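 Native or recombinant (baculovirus-infected cells, Q-Sepharose purified) farnesyltransferase incubated 30 min at 37 °C. [3H]farnesyl transfer to p21H-ras measured by SDS/trichloroacetic acid precipitation, nitrocellulose filtration and scintillation counting.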

SMILES | labeling of Triton-soluble farnesylated proteins (F1 to F3) ([1]; 250 μM, FIG. 3) | effect on low molecular weight GTP binding proteins (SMG) ([2]; 250 μM, FIG. 3) | IC50 (CAAX farnesyltransferase; recombinant enzyme, read-out: concentration inhibiting recombinant ras CAAX farnesyltransferase by 50%) [nM] | fold lower inhibitory concentration than tetrapeptide CVFM (CAAX farnesyltransferase; vs CVFM) [fold] | IC (almost complete) ([1]; Cricetulus griseus, read-out: concentration of almost complete inhibition of farnesylation of F1-3) [µM] | minimal effective concentration ([1]; Cricetulus griseus, read-out: concentration of detectable inhibition of farnesylation of F1-3) [µM] | relative potency in intact cells ([1]; dose dependence, FIG. 4, compared with 27B and 37B) | incorporation of radioactivity into SMG proteins ([2]; increasing concentration, FIG. 5, lanes 2-4)
CSCC[C@H](NC(=O)CN1C(=O)C(N(C)C(=O)[C@@H](N)CS)N=C(c2ccccc2)c2ccccc21)C(=O)O (single isomer, unassigned) [27B] | markedly decreased the labeling of all three Triton-soluble farnesylated proteins (F1 to F3) | little effect on the low molecular weight GTP binding proteins | 0.26 | ~200 |  |  |  | 
COC(=O)[C@H](CCSC)NC(=O)CN1C(=O)C(N(C)C(=O)[C@@H](N)CS)N=C(c2ccccc2)c2ccccc21 (single isomer, unassigned) [37B] |  |  |  |  | 25 | 10 | much more potent than the parent, compound 27B | did not detectably inhibit the incorporation of radioactivity into the abundant SMG proteins
